Experimental data taken from patent publication US20130041005A1, “PHARMACEUTICAL COMPOSITIONS COMPRISING NEUROPILIN INHIBITORS, AND THEIR USE FOR THE PREVENTION AND/OR TREATMENT OF ANGIOGENIC DISORDERS AND CANCERS” (TRAGEX PHARMA, priority 2011, published 2013).

Key:
NRP-1 = target: T1, NRP-1 (Homo sapiens, UniProt O14786); assay: ELISA inhibition of VEGF binding to NRP-1; settings: compounds at 10 μM
T1 construct: purchased R&D Systems, UK 3870-N1-025
T1 sequence (O14786 22-644 isoform O14786-2 limits assumed): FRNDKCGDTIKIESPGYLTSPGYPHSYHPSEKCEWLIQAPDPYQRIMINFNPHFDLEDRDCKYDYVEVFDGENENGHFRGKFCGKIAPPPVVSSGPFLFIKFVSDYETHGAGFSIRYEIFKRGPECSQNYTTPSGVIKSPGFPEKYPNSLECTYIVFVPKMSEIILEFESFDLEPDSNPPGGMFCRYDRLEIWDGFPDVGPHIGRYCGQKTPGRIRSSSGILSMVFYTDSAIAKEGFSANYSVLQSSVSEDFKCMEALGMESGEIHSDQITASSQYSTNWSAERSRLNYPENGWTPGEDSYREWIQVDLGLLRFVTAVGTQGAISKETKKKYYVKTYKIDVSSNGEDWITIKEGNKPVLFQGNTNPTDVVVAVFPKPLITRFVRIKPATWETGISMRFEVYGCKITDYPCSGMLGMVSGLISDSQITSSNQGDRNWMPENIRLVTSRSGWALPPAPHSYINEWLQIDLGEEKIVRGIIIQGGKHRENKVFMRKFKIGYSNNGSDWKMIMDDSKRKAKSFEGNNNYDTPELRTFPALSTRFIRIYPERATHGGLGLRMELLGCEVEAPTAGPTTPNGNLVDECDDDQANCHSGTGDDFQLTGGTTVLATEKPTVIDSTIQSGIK
Experimental: Elisa test was performed covering a 96-well microplate (BD Biosciences, France, cat no 353046) surface with 100 μl of 1×PBS, pH 7.4 with Ca^2+ and Mg^2+, (Lonza, France, cat no 17-513F/12) solution containing 0.2 μg/ml of VEGF-R1 (R&D Systems, UK, cat no 321-FL-050/CF) or 2 μg/ml of NRP-1 (R&D Systems, UK, cat no 3870-N1-025) or NRP-2 (R&D Systems, UK, cat no […]). The plate was sealed and incubated overnight at 4° C. After 3 washes with 200 μl of 1×PBS 0.5% (v/v) Tween 20 (Sigma, France, cat no 34078) (Buffer A), the plate was blocked by adding 200 μl of 1×PBS with 0.5% (w/v) BSA (Eurobio, France, cat no GAUBSA01-65) and agitated at 37° C. for 2 h. After washing five times with Buffer A, 50 μl/well of the compounds of the invention at 10 μM were added for the specific signal and 50 μl/well for the non-specific and max binding signal and incubated at 37° C. for 1 hour, shacking. 50 μl of btVEGF (R&D Systems, UK, cat no NFVEO) at […] for NRP-1/4 μg/ml Heparin (Sigma, USA, cat no H3393-10KU), 300 μg/ml for NRP-2 and 100 μg/ml for VEGF-R1 solution was added to each well; the plate was sealed and incubated at 37° C. for 2 h, shacking. The last incubation was carried out, after five washes with Buffer A, adding 100 μl/well Streptavidin-Horseradish Peroxidase (Amersham, Switzerland, cat no RPN4401) diluted 1:8000 with buffer A. After 1 h shacking at 37° C. under obscurity, the plate was washed 5 times with buffer A and 100 μl of SuperSignal west picochemiluminescent substrate (Interchim, USA cat no 34078) were added. Luminescence was quantified with an EnVision™ 2101 Multilabel reader (Perkin Elmer, USA) and the data analyzed by Wallac Envision manager software. Signal is given as relative light units (RLU). Non-specific binding is defined as the signal measured in the absence of receptor coated on the microplate. The specific binding was calculated as the difference between total binding and non-specific binding. The percentage of inhibition was calculated as following: […]

MDAMB-231 cells = assay: Adhesion test (crystal violet), MDA-MB-231; type: cell-based, Human; settings: MDAMB-231, FIGS. 1A-C
Experimental: The crystal violet (hexamethyl pararosaniline chloride) is used as biologic colorant. It enters in the living cells, allowing the visualisation of the dark purple adherent living cells on the bottom of the plate.
After an incubation period of 72 h, the adherent cells were fixed with […] paraformaldehyde
3% for 15 min at room temperature. The medium and non-adherent cells were removed, and the cells were washed extensively with […] PBS (+Ca^2+ and +Mg^2+) (Lonza) and then stained with 50 μl of crystal violet 0.04% for 30 min at room temperature. The cells were washed gently 3 times with 100 μl PBS and were permeabilised with 100 μl triton 2% for 15 min. The microplate was stirred to obtain a homogenous solution and absorbance was quantified at 580 nm by Microplate Manager 5.2.
The percentage of inhibition is calculated as follow: % inhibition=100−[(DOsample/DOcontrol)*100].

HUVEC cells = assay: WST-1 proliferation assay, HUVEC; type: cell-based; settings: FIG. 1 cell survival
Experimental: (§1) Cells were grown as subconfluent monolayer and cultured in 75 cm^2 flasks at 37° C., 5% CO2 in a humidified atmosphere, and medium was changed every two days. Only cells from passages 2-6 were used for the experiments.
(§2) All cells were detached with 3 ml of trypsin/EDTA (chelator of calcium and magnesium ions) (Lonza), incubated for 5 min at 37° C., and examined using a microscope to ensure that the cells were detached and floating. […] The supernatant was removed and the cell pellet resuspended in […] of culture medium. 50 μl of this solution were transferred in 20 μl of isotonic solution and the cells were counted by count cellular (Beckman Coulter).
(§3) The cell proliferation WST-1 assay is a colorimetric assay for the quantification of cell proliferation and viability, based on the enzymatic cleavage of the tetrazolium salt WST-1 added to the culture medium, to a water soluble colored formazan dye, detected by absorbance at 450 nm, by mitochondrial succinate-tetrazolium reductase in viable cells. An augmentation in enzyme activity will then lead to an increase in the amount of formazan dye formed, which directly correlates to the number of metabolically active cells in the culture.
(§4) After an incubation period of 72 h, at day 4, were prepared the […] medium with reagent WST-1 […] ([…]). The medium was removed from the 96 microplate and 200 μl of solution WST-1/medium were added for each well. The cells were incubated at 37° C. in a humidified atmosphere of 5% CO2 for 1 h 30 and the absorbance at 450-655 nm was measured by Microplate Manager 5.2 (Bio-Rad).

MDA-MB-231 = assay: WST-1 proliferation assay, MDA-MB-231; type: cell-based, Human; settings: MDAMB-231 cell survival, FIGS. 1A-C
Experimental: as §1, §2, §3, §4

In the case of `O=C(NC(=S)Nc1cccc(-c2nc3ccccc3[nH]2)c1)c1ccc2c(c1)OCO2` [Compound 3, N-[3-(1H-benzimidazol-2-yl)phenyl]-N′-(1,3-benzodioxol-5-ylcarbonyl)thiourea], the inhibition at 10 µM (NRP-1) is reported as 46 ± 3%, the “inhibition of adhesion of cancer cells in culture” value (MDAMB-231 cells) is reported as “inhibited the adhesion” and the “cytotoxicity for endothelial cell lines (HUVEC cells) in culture” value (HUVEC cells) is reported as “cytotoxic”. The “cytotoxicity for cancer cells in vitro” value (MDA-MB-231) was “cytotoxic”.
